pIC50: −log10 of the molar value.

As usually defined, the pIC50 is −log10 of the IC50, conventionally taken in molar units. The inhibition is the share of the control response that was lost under treatment.

Test [1] can be described thus: Antagonist activity at nAChR in rat striatal slices assessed as inhibition of nicotine-evoked [3H]dopamine release at 100 uM. It is filed as functional. The following applies: for inhibition at 100 µM: Rattus norvegicus.
The nature of test [2]: Antagonist activity at nAChR in rat striatal slices assessed as inhibition of nicotine-evoked [3H]dopamine release. It counts as functional.
The target in test [3] is Neuronal acetylcholine receptor subunit alpha-7 (Rattus norvegicus) (UniProt Q05941). Briefly: Displacement of [3H]MLA from alpha-7 nAChR in rat brain membrane at 100 uM. It counts as cell membranes.
Sequence of Neuronal acetylcholine receptor subunit alpha-7 (Rattus norvegicus) (Q05941 whole entry): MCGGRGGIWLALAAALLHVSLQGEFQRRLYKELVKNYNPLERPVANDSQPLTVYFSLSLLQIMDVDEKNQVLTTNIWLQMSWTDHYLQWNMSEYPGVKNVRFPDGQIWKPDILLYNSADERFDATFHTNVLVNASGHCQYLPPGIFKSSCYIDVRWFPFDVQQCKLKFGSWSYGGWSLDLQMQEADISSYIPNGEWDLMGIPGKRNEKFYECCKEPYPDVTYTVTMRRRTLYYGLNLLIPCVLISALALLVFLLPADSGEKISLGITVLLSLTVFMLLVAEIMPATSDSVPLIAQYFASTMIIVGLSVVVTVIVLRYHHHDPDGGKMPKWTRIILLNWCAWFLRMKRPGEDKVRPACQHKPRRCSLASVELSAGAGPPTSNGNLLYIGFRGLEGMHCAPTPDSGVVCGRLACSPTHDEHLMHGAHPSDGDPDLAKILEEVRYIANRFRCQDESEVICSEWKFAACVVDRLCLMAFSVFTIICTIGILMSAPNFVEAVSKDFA
For test [4], the target named is Neuronal acetylcholine receptor; alpha4/beta2 (Rattus norvegicus) (UniProt P09483+P12390). As to the kind of experiment: Displacement of [3H]NIC from alpha-4-beta-2 nAChR in rat brain membrane at 100 uM. It is filed as cell membranes.

For `CCCCCCCCCCCC[n+]1cccc(C)c1.[I-]`, the Imax in test [1] turned out to be 62%. Moreover, the pIC50 in test [2] is 7.52.

With `Cc1cc(C)c[n+](CCCC#Cc2cc(C#CCCC[n+]3cc(C)cc(C)c3)cc(C#CCCC[n+]3cc(C)cc(C)c3)c2)c1`, the inhibition at 100 µM in test [1] turned out to be 27%. For the same compound, the inhibition in test [3] was found to be 0%; in test [4] it was 8.9%.

Turning to `C(#Cc1cc(C#CCCC[n+]2ccc3ccccc3c2)cc(C#CCCC[n+]2ccc3ccccc3c2)c1)CCC[n+]1ccc2ccccc2c1`, the inhibition at 100 µM in test [1] turned out to be 44%. The inhibition in test [3] was determined as 4.5%; in test [4], 9.2%.

As to `c1ccc2c[n+](CCCCCc3cc(CCCCC[n+]4ccc5ccccc5c4)cc(CCCCC[n+]4ccc5ccccc5c4)c3)ccc2c1`, in test [1], the inhibition at 100 µM worked out at 28%. For the same compound, the results for the inhibition in test [3] and in test [4] were 2.5% and 8.4%, respectively.

Take `C(#Cc1cc(C#CCCC[n+]2cccc3ccccc32)cc(C#CCCC[n+]2cccc3ccccc32)c1)CCC[n+]1cccc2ccccc21`: the inhibition at 100 µM in test [1] stood at 29%. Further, the inhibition was determined as 21% in test [3] and 7% in test [4].

`Cc1cc[n+](CCCC#Cc2cc(C#CCCC[n+]3ccc(C)c(C)c3)cc(C#CCCC[n+]3ccc(C)c(C)c3)c2)cc1C`: in test [1], the inhibition at 100 µM was 18%. Also, the figures for the inhibition in test [3] and in test [4] were 1.8% and 4%, respectively.

Regarding `Cc1ccc[n+](CCCCCCCCCCCC[n+]2cccc(C)c2)c1.[Br-].[Br-]`, the Imax in test [1] stood at 68%. In test [2], the pIC50 was 8.70.

For the compound `Cc1ccc[n+](CCCC#Cc2cc(C#CCCC[n+]3cccc(C)c3)cc(C#CCCC[n+]3cccc(C)c3)c2)c1.[Br-].[Br-].[Br-]`, in test [1], the Imax was 67% and the inhibition at 100 µM came to 40%. Also, the pIC50 in test [2] was 9.70. The inhibition in test [3] came to 0%. The compound also yielded an inhibition in test [4] of 10%.

In the case of `CCCCc1ccc[n+](CCCC#Cc2cc(C#CCCC[n+]3cccc(CCCC)c3)cc(C#CCCC[n+]3cccc(CCCC)c3)c2)c1`, the inhibition at 100 µM in test [1] came out at 28%. Moreover, the values for the inhibition in test [3] and in test [4] were 30% and 6.8%, respectively.

For `Cc1cccc[n+]1CCCC#Cc1cc(C#CCCC[n+]2ccccc2C)cc(C#CCCC[n+]2ccccc2C)c1.[Br-].[Br-].[Br-]`, in test [1], the Imax turned out to be 50% and the inhibition at 100 µM was 51%. Also, the negative logarithm of the IC50 (pIC50) in test [2] was 8.40. The compound also yielded an inhibition in test [3] of 0%. The compound also came in with an inhibition in test [4] of 4.5%.

On to `Cc1cc[n+](CCCCCc2cc(CCCCC[n+]3ccc(C)c(C)c3)cc(CCCCC[n+]3ccc(C)c(C)c3)c2)cc1C`, for which, in test [1], the inhibition at 100 µM was found to be 50%. The values for the inhibition in test [3] and in test [4] were 0.2% and 9.3%, respectively.

As for `Cc1cc[n+](CCCCCc2cc(CCCCC[n+]3ccc(C)cc3)cc(CCCCC[n+]3ccc(C)cc3)c2)cc1`, the inhibition at 100 µM in test [1] amounted to 37%. Moreover, the inhibition in test [3] was determined as 0%; in test [4], 6%.

With `CN1CCC[C@H]1c1ccc[n+](CCCCCc2cc(CCCCC[n+]3cccc([C@@H]4CCCN4C)c3)cc(CCCCC[n+]3cccc([C@@H]4CCCN4C)c3)c2)c1`, in test [1], the inhibition at 100 µM was determined as 26%. For the same compound, the inhibition in test [3] amounted to 7.9%; in test [4], 81%.

On to `c1ccc(-c2ccc[n+](CCCCCc3cc(CCCCC[n+]4cccc(-c5ccccc5)c4)cc(CCCCC[n+]4cccc(-c5ccccc5)c4)c3)c2)cc1`, for which the inhibition at 100 µM in test [1] was determined as 6%. In addition, the inhibition in test [3] was 19%; in test [4] it was 14%.

Consider `c1ccc2c(c1)ccc[n+]2CCCCCc1cc(CCCCC[n+]2cccc3ccccc32)cc(CCCCC[n+]2cccc3ccccc32)c1`, for which, in test [1], the inhibition at 100 µM is 8%. Further, the inhibition was found to be 6.8% in test [3] and 5.7% in test [4].

Turning to `Cc1cc[n+](CCCC#Cc2cc(C#CCCC[n+]3ccc(C)cc3)cc(C#CCCC[n+]3ccc(C)cc3)c2)cc1`, in test [1], the inhibition at 100 µM was 32%. For the same compound, the results for the inhibition in test [3] and in test [4] were 0% and 21%, respectively.

In the case of `Cc1cc(C)c[n+](CCCCCc2cc(CCCCC[n+]3cc(C)cc(C)c3)cc(CCCCC[n+]3cc(C)cc(C)c3)c2)c1`, the inhibition at 100 µM in test [1] was 39%. Also, the inhibition turned out to be 6.5% in test [3] and 11% in test [4].

Take `C(#Cc1cc(C#CCCC[n+]2cccc(-c3ccccc3)c2)cc(C#CCCC[n+]2cccc(-c3ccccc3)c2)c1)CCC[n+]1cccc(-c2ccccc2)c1`: the inhibition at 100 µM in test [1] turned out to be 29%. The inhibition was found to be 39% in test [3] and 15% in test [4].

For the compound `CCCCc1ccc[n+](CCCCCc2cc(CCCCC[n+]3cccc(CCCC)c3)cc(CCCCC[n+]3cccc(CCCC)c3)c2)c1`, the inhibition at 100 µM in test [1] was found to be 68%. Further, the figures for the inhibition in test [3] and in test [4] were 4.4% and 6.2%, respectively.

As to `Cc1ccc[n+](CCCCCc2cc(CCCCC[n+]3cccc(C)c3)cc(CCCCC[n+]3cccc(C)c3)c2)c1.[Br-].[Br-].[Br-]`, in test [1], the Imax was 50% and the inhibition at 100 µM came out at 58%. Besides, the negative logarithm of the IC50 (pIC50) in test [2] was 8.70. Further, in test [3], the inhibition was determined as 1.2%. In test [4], this compound had an inhibition of 14%.

On to `Cc1cccc[n+]1CCCCCc1cc(CCCCC[n+]2ccccc2C)cc(CCCCC[n+]2ccccc2C)c1`, for which, in test [1], the inhibition at 100 µM came to 27%. The figures for the inhibition in test [3] and in test [4] were 0% and 8.6%, respectively.

For the compound `CN1CCC[C@H]1c1ccc[n+](CCCC#Cc2cc(C#CCCC[n+]3cccc([C@@H]4CCCN4C)c3)cc(C#CCCC[n+]3cccc([C@@H]4CCCN4C)c3)c2)c1.[Br-].[Br-].[Br-]`, in test [1], the Imax is reported as 50% and the inhibition at 100 µM stood at 59%. Also, the inhibition in test [3] was found to be 4.2%. The same compound came in with an inhibition in test [4] of 44%.

The record behind these values is ChEMBL document CHEMBL1138300, “Tris-azaaromatic quaternary ammonium salts: Novel templates as antagonists at nicotinic receptors mediating nicotine-evoked dopamine release” (Bioorg Med Chem Lett, 2007).
